Measured values reported in patent US6737383B1, “Herbicidal oxadiazolidines” (priority 1999, dated 2004).

Assays:
morningglory = test: Test B pre/postemergence morningglory; format: in vivo, Ipomoea hederacea
In short: (§1)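 Herbicidal effect was estimated by eye on a ten-point control scale after plants spent twelve to sixteen days in a greenhouse following soil or foliar treatment. Foliar sprays targeted plants at one to four leaves; all doses were formulated in a non-phytotoxic solvent with surfactant.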

soybean = test: Test B pre/postemergence soybean; format: in vivo, Glycine max
In short: as §1

giant foxtail = test: Test B pre/postemergence giant foxtail; format: in vivo, Setaria faberii
In short: as §1

rape = test: Test B pre/postemergence rape; format: in vivo, Brassica napus
In short: as §1

smallflower flatsedge = test: Test B flood test smallflower flatsedge; format: in vivo, Cyperus difformis
In short: (§2)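 Plants were grown to the 2-leaf stage before treatment with test chemical, then held in a greenhouse for twelve to sixteen days. Injury was visually rated against untreated controls on a 0–10 scale, where 0 is no effect and 10 is complete control.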

blackgrass = test: Test B pre/postemergence blackgrass; format: in vivo, Alopecurus myosuroides
In short: as §1

velvetleaf = test: Test B pre/postemergence velvetleaf; format: in vivo, Abutilon theophrasti
In short: as §1

wheat = test: Test B pre/postemergence wheat; format: in vivo, Triticum aestivum
In short: as §1

sugar beet = test: Test B pre/postemergence sugar beet; format: in vivo, Beta vulgaris
In short: as §1

purple nutsedge = test: Test B pre/postemergence purple nutsedge; format: in vivo, Cyperus rotundus
In short: as §1

bamyardgrass = test: Test B flood test barnyardgrass; format: in vivo, Echinochloa crus-galli
In short: as §2

surinam grass = test: Test B pre/postemergence surinam grass; format: in vivo, Brachiaria decumbens
In short: as §1

crabgrass = test: Test B pre/postemergence crabgrass; format: in vivo, Digitaria sanguinalis
In short: as §1

duck salad = test: Test B flood test duck salad; format: in vivo, Heteranthera limosa
In short: as §2

cocklebur = test: Test B pre/postemergence cocklebur; format: in vivo, Xanthium strumarium
In short: as §1

pigweed = test: Test B pre/postemergence pigweed; format: in vivo, Amaranthus retroflexus
In short: as §1

rice = test: Test B flood test rice; format: in vivo, Oryza sativa
In short: as §2

wild oat = test: Test B pre/postemergence wild oat; format: in vivo, Avena fatua
In short: as §1

corn = test: Test B pre/postemergence corn; format: in vivo, Zea mays
In short: as §1

[1] = Postemergence, Rate 31 g/ha, visual rating, scale 0 to 10 (0 no effect, 10 complete control)
[2] = Postemergence, Rate 62 g/ha, scale 0 to 10, 0 is no effect, 10 is complete control
[3] = Postemergence, Rate 125 g/ha, scale of 0 to 10 where 0 is no effect and 10 is complete control
[4] = Postemergence, Rate 250 g/ha, scale of 0 to 10, 0 is no effect, 10 is complete control
[5] = Preemergence, Rate 62 g/ha, scale of 0 to 10 where 0 is no effect and 10 is complete control
[6] = Preemergence, Rate 125 g/ha, scale of 0 to 10 where 0 is no effect and 10 is complete control
[7] = Preemergence, Rate 250 g/ha, scale 0 to 10 (0 no effect, 10 complete control)
[8] = Preemergence, Rate 31 g/ha, visual rating, scale 0 to 10 (0 no effect, 10 complete control)
[9] = Rate 31 g/ha, Pre-emergence section (flood test species), scale 0 to 10
[10] = Rate 62 g/ha, flood test species, Pre-emergence, visual evaluation after twelve to sixteen days
[11] = Rate 125 g/ha, under heading Pre-emergence, flood test species, visual evaluation after twelve to sixteen days
[12] = Rate 250 g/ha, Pre-emergence (flood test species), scale 0 to 10, 0 is no effect, 10 is complete control

CCOP(=O)(OCC)C(C)n1c(=O)on(C(=O)N(c2ccc(Cl)cc2)C(C)C)c1=O (centres unmarked) [Compound 644]
2: Giant foxtail plant response rating (giant foxtail; [6]) | Plant response rating, Rape (rape; [7]) | Plant response rating, B. signalgrass (surinam grass; [7]) | Crabgrass plant response rating (crabgrass; [8]) | Crabgrass plant response rating (crabgrass; [5]) | Redroot pigweed plant response rating (pigweed; [1]) | Plant response rating, Redroot pigweed (pigweed; [2])
3: Plant response rating, Morningglory (morningglory; [7]) | Plant response rating, Crabgrass (crabgrass; [7]) | Redroot pigweed plant response rating (pigweed; [3]) | Redroot pigweed plant response rating (pigweed; [4])
0: Morningglory plant response rating (morningglory; [1]) | Plant response rating, Morningglory (morningglory; [2]) | Morningglory plant response rating (morningglory; [3]) | Morningglory plant response rating (morningglory; [4]) | Morningglory plant response rating (morningglory; [5]) | Morningglory plant response rating (morningglory; [6]) | Soybean plant response rating (soybean; [1]) | Plant response rating, Soybean (soybean; [2]) | Soybean plant response rating (soybean; [3]) | Soybean plant response rating (soybean; [5]) | Soybean plant response rating (soybean; [6]) | Plant response rating, Soybean (soybean; [7]) | Giant foxtail plant response rating (giant foxtail; [1]) | Plant response rating, Giant foxtail (giant foxtail; [2]) | Giant foxtail plant response rating (giant foxtail; [3]) | Giant foxtail plant response rating (giant foxtail; [4]) | Giant foxtail plant response rating (giant foxtail; [8]) | Giant foxtail plant response rating (giant foxtail; [5]) | Rape plant response rating (rape; [1]) | Plant response rating, Rape (rape; [2]) | Rape plant response rating (rape; [3]) | Rape plant response rating (rape; [4]) | Rape plant response rating (rape; [5]) | Rape plant response rating (rape; [6]) | S. Flatsedge plant response rating (smallflower flatsedge; [9]) | Plant response rating, S. Flatsedge (0 to 10 scale, 0 is no effect, 10 is complete control) (smallflower flatsedge; [10]) | S. Flatsedge plant response rating (0 to 10 scale, 0 is no effect, 10 is complete control) (smallflower flatsedge; [11]) | S. Flatsedge plant response rating (smallflower flatsedge; [12]) | Blackgrass plant response rating (blackgrass; [1]) | Plant response rating, Blackgrass (blackgrass; [2]) | Blackgrass plant response rating (blackgrass; [3]) | Blackgrass plant response rating (blackgrass; [4]) | Blackgrass plant response rating (blackgrass; [8]) | Blackgrass plant response rating (blackgrass; [5]) | Blackgrass plant response rating (blackgrass; [6]) | Plant response rating, Blackgrass (blackgrass; [7]) | Velvetleaf plant response rating (velvetleaf; [1]) | Plant response rating, Velvetleaf (velvetleaf; [2]) | Velvetleaf plant response rating (velvetleaf; [3]) | Velvetleaf plant response rating (velvetleaf; [4]) | Velvetleaf plant response rating (velvetleaf; [5]) | Velvetleaf plant response rating (velvetleaf; [6]) | Plant response rating, Velvetleaf (velvetleaf; [7]) | Wheat plant response rating (wheat; [1]) | Plant response rating, Wheat (wheat; [2]) | Wheat plant response rating (wheat; [3]) | Wheat plant response rating (wheat; [4]) | Wheat plant response rating (wheat; [5]) | Wheat plant response rating (wheat; [6]) | Plant response rating, Wheat (wheat; [7]) | Sugarbeets plant response rating (sugar beet; [1]) | Plant response rating, Sugarbeets (sugar beet; [2]) | Sugarbeets plant response rating (sugar beet; [3]) | Sugarbeets plant response rating (sugar beet; [4]) | Sugarbeets plant response rating (sugar beet; [5]) | Sugarbeets plant response rating (sugar beet; [6]) | Plant response rating, Sugarbeets (sugar beet; [7]) | Nutsedge plant response rating (purple nutsedge; [1]) | Nutsedge plant response rating (purple nutsedge; [3]) | Nutsedge plant response rating (purple nutsedge; [5]) | Nutsedge plant response rating (purple nutsedge; [6]) | Barnyardgrass plant response rating (bamyardgrass; [9]) | Plant response rating, Barnyardgrass (0 to 10 scale, 0 is no effect, 10 is complete control) (bamyardgrass; [10]) | Barnyardgrass plant response rating (0 to 10 scale, 0 is no effect, 10 is complete control) (bamyardgrass; [11]) | Barnyardgrass plant response rating (bamyardgrass; [12]) | B. signalgrass plant response rating (surinam grass; [1]) | Plant response rating, B. signalgrass (surinam grass; [2]) | Plant response rating, B. signalgrass (surinam grass; [3]) | B. signalgrass plant response rating (surinam grass; [4]) | B. signalgrass plant response rating (surinam grass; [8]) | B. signalgrass plant response rating (surinam grass; [5]) | B. signalgrass plant response rating (surinam grass; [6]) | Crabgrass plant response rating (crabgrass; [1]) | Plant response rating, Crabgrass (crabgrass; [2]) | Crabgrass plant response rating (crabgrass; [3]) | Crabgrass plant response rating (crabgrass; [4]) | Ducksalad plant response rating (duck salad; [9]) | Plant response rating, Ducksalad (0 to 10 scale, 0 is no effect, 10 is complete control) (duck salad; [10]) | Ducksalad plant response rating (0 to 10 scale, 0 is no effect, 10 is complete control) (duck salad; [11]) | Ducksalad plant response rating (duck salad; [12]) | Cocklebur plant response rating (cocklebur; [1]) | Plant response rating, Cocklebur (cocklebur; [2]) | Cocklebur plant response rating (cocklebur; [3]) | Cocklebur plant response rating (cocklebur; [4]) | Cocklebur plant response rating (cocklebur; [8]) | Cocklebur plant response rating (cocklebur; [5]) | Cocklebur plant response rating (cocklebur; [6]) | Plant response rating, Cocklebur (cocklebur; [7]) | Redroot pigweed plant response rating (pigweed; [5]) | Redroot pigweed plant response rating (pigweed; [6]) | Plant response rating, Redroot pigweed (pigweed; [7]) | Rice plant response rating (rice; [9]) | Plant response rating, Rice (0 to 10 scale, 0 is no effect, 10 is complete control) (rice; [10]) | Rice plant response rating (0 to 10 scale, 0 is no effect, 10 is complete control) (rice; [11]) | Rice plant response rating (rice; [12]) | Wild oats plant response rating (wild oat; [1]) | Plant response rating, Wild oats (wild oat; [2]) | Wild oats plant response rating (wild oat; [3]) | Wild oats plant response rating (wild oat; [4]) | Wild oats plant response rating (wild oat; [5]) | Wild oats plant response rating (wild oat; [6]) | Plant response rating, Wild oats (wild oat; [7]) | Corn plant response rating (corn; [1]) | Plant response rating, Corn (corn; [2]) | Corn plant response rating (corn; [3]) | Corn plant response rating (corn; [4]) | Corn plant response rating (corn; [8]) | Corn plant response rating (corn; [5]) | Corn plant response rating (corn; [6]) | Plant response rating, Corn (corn; [7])
6: Plant response rating, Giant foxtail (giant foxtail; [7])
